Test results taken from article PMC12607897, “Inhibition of HIV-1 replication by primer RNA packaging inhibitors” (mBio, 2025).

Tests used:
[1] = molecular target: T1, mLysRS:IN interaction (human mLysRS, HIV-1 IN) (UniProt P12497+Q15046); test: HTRF assay of mLysRS:IN interaction; type: binding, human / HIV-1; conditions: HTRF; mLysRS 1.5 nM dimer, IN 25 nM dimer; read-out: half-maximal inhibitory concentration (IC50) in the mLysRS:IN assay
T1 construct: made in house
Procedure: Fig 1 Determination of the half-maximal inhibitory concentration (IC50) of the drugs in the mLysRS:IN binding assay. The binding of mLysRS to IN (red) or p38 (blue) was monitored in the HTRF assay in the presence of increasing drug concentrations (9–1,000 µM). The experimental values (symbols) were fitted (curves) to the equation Y = Ymin + {(Ymax − Ymin)/[1 + (X/IC50)^n]}, where n is the Hill coefficient. […] Proteins were isolated as described previously ([4]). Several batches of IN were used throughout this study. […] The molecules are dissolved in DMSO at a final concentration of 10 mM. After a 1 h incubation on ice, antibodies (Cisbio) directed to the His-tag and conjugated with Eu^3+ cryptate (Cisbio #61HISKLB) and the HA-tag conjugated with XL665 (Cisbio #610HAXLB) were added, and incubation was continued for 30 min. After the addition of 50 mM KF, fluorescence of Eu^3+ cryptate and of XL665 was recorded at 620 nm (I620) and 665 nm (I665), respectively, following excitation of Eu^3+ cryptate at 317 nm, in an Infinite M1000 PRO microplate reader (TECAN). The results were expressed as the ratio of I665/I620.

[2] = system: HIV-1 NLENG1-IRES-GFP (NL4-3-GFP) virus in MT4 cells; test: ex vivo HIV-1 replication assay, GFP expression by flow cytometry in infected MT4 cells (multiple cycles); type: cell-based; conditions: drug 10 µM, added 36–48 h after infection, read 72 h later
Procedure: To test this hypothesis, azelastine, lacidipine, and cilnidipine were used in an ex vivo assay to determine their effect on HIV-1 proliferation. MT4 cells were infected with NLENG1-IRES-GFP, a virus that allows for multiple cycles of infection, and the molecules were added to the medium 36–48 h after infection, before the completion of the first round of viral infection; 72 h after the drugs were added, when two rounds of HIV-1 infection were underway, the level of GFP fluorescence was determined by flow cytometry, as a marker of HIV-1 infection (Fig. 3, left panel). HIV-1 replication was inhibited in a dose-dependent manner. […]. […] At the same time, no drug toxicity was observed, as determined by the MTT assay (Fig. 3, right panel). […] The selectivity index (SI) ([24]) of the three drugs, defined as the ratio of 50% cytotoxic concentration (CC50; >20 µM) to 50% inhibitory concentration (IC50; ~5 µM), >4.
Fig 3 Effect of the inhibitors on HIV-1 replication and cell toxicity. MT4 cells were infected with NL4-3-GFP virus. Two days after infection, inhibitors were added to the culture medium at final concentrations of 1, 3.3, or 10 µM. The final concentration of DMSO was 0.1%. Five days after infection, GFP expression was quantified by flow cytometry, and cell viability was determined by the MTT assay. NInf corresponds to non-infected cells. Six independent experiments were performed, and standard deviations are shown. A Student t-test was used to determine statistical significance compared with the control experiment with DMSO (*: P < 0.001; **: P < 0.0001).
MT4 cell line ([26]) was maintained in RPMI 1640. HEK293T and HeLa-P4 cells ([27]) were maintained in Dulbecco’s modified Eagle medium (DMEM). All media were supplemented with Glutamax and with 10% heat-inactivated fetal calf serum (Hyclone) and 1% penicillin/streptomycin (100 units/mL) (Gibco). All media were purchased from Gibco (Life Technologies Co.). All cell lines used here were incubated at 37 °C, under 5% CO2 atmosphere. HIV-1 stocks were prepared by calcium phosphate-mediated transfection of HEK293T cells, as previously described ([22]), with shuttle vector plasmids encoding HIV-1 NL4-3 (GenBank: AF324493.1) or NLENG1-IRES-GFP ([28]). The latter vector comes from the HIV NL4-3 strain and contains a gfp-IRES-nef cassette at the nef locus. […].
For NL4-3-GFP vectors, viral infection is followed by GFP expression (i.e., the percentage and geometric mean fluorescence intensity [MFI] of GFP^+ cells). Infectivity was estimated by flow cytometry using a FACS Celesta flow cytometer (BD Biosciences). Toxicity is also assessed by flow cytometry (side and forward scatter).

T1 sequence (Q15046 other isoform, or with tags, fused parts or gaps, other chains not shown): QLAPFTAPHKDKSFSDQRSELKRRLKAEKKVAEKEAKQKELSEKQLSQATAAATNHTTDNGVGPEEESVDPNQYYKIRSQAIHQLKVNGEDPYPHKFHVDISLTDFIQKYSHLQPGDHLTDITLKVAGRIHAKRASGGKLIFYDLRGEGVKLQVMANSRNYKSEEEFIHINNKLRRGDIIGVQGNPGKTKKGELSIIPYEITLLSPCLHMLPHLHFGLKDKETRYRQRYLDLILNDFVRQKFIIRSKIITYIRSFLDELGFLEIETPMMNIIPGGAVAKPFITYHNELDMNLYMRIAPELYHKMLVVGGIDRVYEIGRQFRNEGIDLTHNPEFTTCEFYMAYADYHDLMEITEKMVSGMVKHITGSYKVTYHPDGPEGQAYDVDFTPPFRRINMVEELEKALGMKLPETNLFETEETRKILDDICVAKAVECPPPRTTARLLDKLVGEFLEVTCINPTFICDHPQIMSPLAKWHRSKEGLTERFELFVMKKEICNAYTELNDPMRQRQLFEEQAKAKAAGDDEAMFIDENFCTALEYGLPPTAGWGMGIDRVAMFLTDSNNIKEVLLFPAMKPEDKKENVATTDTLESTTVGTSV

## CN1CCCC(n2nc(Cc3ccc(Cl)cc3)c3ccccc3c2=O)CC1 (centres unmarked) [azelastine]
[1]
  IC50: 340 ± 50 µM
[2]
  GFP fluorescence, % of the value observed when DMSO was added alone: 15.2%
